Measured values: ChEMBL document CHEMBL5046245, “Identification of Pyruvate Carboxylase as the Cellular Target of Natural Bibenzyls with Potent Anticancer Activity against Hepatocellular Carcinoma via Metabolic Reprogramming” (J Med Chem, 2022)
pIC50: −log10 of the molar value. Activity calls are given as the source filed them. The calls are words filed in the database; no cut-off is given here.

Columns and labels:
HepG2 [1] = experiment: Antiproliferative activity against human HepG2 cells assessed as inhibition of cell growth measured after 48 hrs by MTT assay; format: functional, cell-based; settings: HepG2, 48 h
SK-HEP1 [2] = experiment: Antiproliferative activity against human SK-HEP1 cells assessed as inhibition of cell growth measured after 48 hrs by MTT assay; format: functional, cell-based; settings: SK-HEP1, 48 h
L02 = experiment: Cytotoxicity against human HL7702 cells assessed as inhibition of cell growth measured upto 400 nM measured after 48 hrs by MTT assay; format: toxicity, cell-based; settings: l02, 48 h
HepG2 [3] = experiment: Effect on cell cycle arrest in human HepG2 cells assessed as increase in accumulation of cells in G2/M phase at 20 to 80 nM incubated for 24 hrs by propidium iodide staining based flow cytometry analysis; format: functional; settings: dose 20-80 nM, TDE = time-dependent effect
HepG2 [4] = experiment: Effect on cell cycle arrest in human HepG2 cells assessed as decrease in accumulation of cells at G0/G1 phase at 20 nM measured upto 24 hrs hrs by propidium iodide staining based flow cytometry analysis; format: functional; settings: time hrs <=24, TDE = time-dependent effect
HCCLM3 [5] = experiment: Antimigratory activity in human HCCLM3 cells assessed as inhibition of scratch closure at 0.05 to 1 nM measured after 24 hrs by […] assay; format: functional, cell-based; settings: dose 0.05-1 nM
HCCLM3 [6] = experiment: Inhibition of epithelial-mesenchymal transition in human HCCLM3 cells assessed as decrease in N-cadherin expression at 0.05 to 1 nM incubated for 24 hrs by Western blot analysis; format: functional, cell-based; settings: dose 0.05-1 nM
HepG2 [7] = experiment: Induction of apoptosis in human HepG2 cells assessed as activation of caspase 3 measured after 24 hrs by Western blot analysis; format: functional, cell-based; settings: dose 10-40 nM
HepG2 [8] = experiment: Induction of caspase-mediated apoptosis in human HepG2 cells assessed as reduction in cell viability at 100 to 400 nM incubated for 48 hrs in presence of Z-VAD-FMK by MTT assay; format: functional, cell-based; settings: dose 100-400 nM
[9] = Toxicity in NCR-nu/nu mouse bearing human HepG2 tumor assessed as effect on body weight at 25 to 50 mg/kg, ip administered alternate days for 21 days and measured every three days; format: organism-based; settings: in vivo, 504 h, dose 25-50 mg/kg, time 21 day
HepG2 [10] = experiment: Antitumor activity against human HepG2 cells xenografted in NCR-nu/nu mouse assessed reduction in tumor growth at 25 to 50 mg/kg, ip administered alternate days for 21 days and measured 26 days post implantation; format: functional, organism-based; settings: dose 25-50 mg/kg, time 21.0 day
HepG2 [11] = experiment: Antitumor activity against human HepG2 cells xenografted in NCR-nu/nu mouse assessed wet tumor weight at 50 mg/kg, ip administered alternate days for 21 days and measured 26 days post implantation (Rvb= 0.92 +/- 0.13 g); format: functional; settings: time 21 day
HCCLM3 [12] = experiment: Induction of apoptosis in human HCCLM3 cells xenografted in NCR-nu/nu mouse assessed as increase in total apoptotic cells in tumor at 25 to 50 mg/kg, ip administered alternate days for 21 days and measured 26 days post implantation by TUNEL staining based confocal microscopic analysis; format: functional, organism-based; settings: dose 25-50 mg/kg, time 21.0 day
[13] = Systemic toxicity in NCR-nu/nu mouse bearing human HCCLM3 tumor assessed as pathological change in heart at 25 to 50 mg/kg, ip administered alternate days for 21 days and measured 26 days post implantation by H and E staining based analysis; format: organism-based; settings: in vivo, 504 h, dose 25-50 mg/kg, time 21 day
[14] = Systemic toxicity in NCR-nu/nu mouse bearing human HCCLM3 tumor assessed as pathological change in spleen at 25 to 50 mg/kg, ip administered alternate days for 21 days and measured 26 days post implantation by H and E staining based analysis; format: organism-based; settings: in vivo, 504 h, dose 25-50 mg/kg, time 21 day
[15] = Systemic toxicity in NCR-nu/nu mouse bearing human HCCLM3 tumor assessed as pathological change in kidney at 25 to 50 mg/kg, ip administered alternate days for 21 days and measured 26 days post implantation by H and E staining based analysis; format: organism-based; settings: in vivo, 504 h, dose 25-50 mg/kg, time 21 day
[16] = Inhibition of pyruvate carboxylase in human HepG2 cell lysate measured upto 24 hrs by PC assay kit; format: subcellular
[17] = Inhibition of pyruvate carboxylase in human HCCLM3 cell lysate measured upto 24 hrs by PC assay kit; format: subcellular
HepG2 [18] = experiment: Cytotoxicity against PC knockout human HepG2 cells assessed as reduction in cell viability at 20 to 100 nM measured after 48 hrs by MTT assay; format: functional, cell-based; settings: dose 20-100 nM
HCCLM3 [19] = experiment: Cytotoxicity against PC knockout human HCCLM3 cells assessed as reduction in cell viability at 20 to 100 nM measured after 48 hrs by MTT assay; format: functional, cell-based; settings: dose 20-100 nM
HepG2 [20] = experiment: Induction of apoptosis in human HepG2 cells transfected with PC-flag plasmid assessed as reduction in cell viability at 20 to 100 nM incubated for 48 hrs by MTT assay; format: functional, cell-based; settings: dose 20-100 nM
HCCLM3 [21] = experiment: Anti-invasive activity against PC knockout human HCCLM3 cells assessed as suppression of cell invasion at 0.05 nM measured after 48 hrs by transwell assay; format: functional, cell-based
SK-HEP1 [22] = experiment: Antimigratory activity in human SK-HEP1 cells overexpressing PC assessed as suppression of cell migration at 0.5 nM measured after 48 hrs by wound healing assay; format: functional, cell-based
SK-HEP1 [23] = experiment: Anti-invasive activity in human SK-HEP1 cells overexpressing PC assessed as suppression of cell invasion at 0.05 nM measured after 48 hrs by transwell assay; format: functional, cell-based
SK-HEP1 [24] = experiment: Inhibition of epithelial transition in human SK-HEP1 cells overexpressing PC assessed as effect on E-cadherin expression; format: functional, cell-based
SK-HEP1 [25] = experiment: Inhibition of mesenchymal transition in human SK-HEP1 cells overexpressing PC assessed as effect on N-cadherin expression; format: functional, cell-based
HCCLM3 [26] = experiment: Induction of glycolysis in human HCCLM3 cells assessed as decrease in level of ATP at 5 nM; format: functional, cell-based
HCCLM3 [27] = experiment: Induction of glycolysis in human HCCLM3 cells assessed as decrease in level of oxaloacetate at 5 nM; format: functional, cell-based
HCCLM3 [28] = experiment: Induction of glycolysis in human HCCLM3 cells assessed as decrease in level of serine at 5 nM; format: functional, cell-based
HCCLM3 [29] = experiment: Induction of glycolysis in human HCCLM3 cells assessed as decrease in level of acetyl-CoA at 5 nM; format: functional, cell-based
HCCLM3 [30] = experiment: Induction of glycolysis in human HCCLM3 cells assessed as decrease in level of aspartate at 5 nM; format: functional, cell-based
HCCLM3 [31] = experiment: Induction of mitochondrial oxidative stress in human HCCLM3 cells assessed as accumulation of ROS at 10 nM by DCFH-DA staining based flow cytometry analysis; format: functional, cell-based; settings: TDE = time-dependent effect
HCCLM3 [32] = experiment: Inhibition of mitochondrial oxidative stress in PC knockout human HCCLM3 cells assessed as reduction in […] ratio at 10 nM; format: functional, cell-based
HCCLM3 [33] = experiment: Effect on ATP production in PC knockout human HCCLM3 cells assessed as reduction in intracellular ATP level at 10 nM by CellTiter-Lumni plus cell viability assay; format: functional, cell-based
HCCLM3 [34] = experiment: Induction of apoptosis in human HCCLM3 cells assessed as nuclear condensation at 20 nM incubated for 24 hrs by DAPI staining based phase contrast microscopic analysis; format: functional, cell-based
[35] = Antitumor activity against human HCCLM3 cells xenografted in NCR-nu/nu mouse assessed wet tumor weight at 50 mg/kg, ip administered alternate days for 21 days and measured 26 days post implantation (Rvb= 1.835 +/- 0.15 g); format: functional; settings: time 21 day

In the case of `COc1ccc(CCc2cc(OC)c(OC)c(OC)c2)cc1O`, the pIC50 (HepG2 [1]) was 7.00, the pIC50 (SK-HEP1 [2]) was 6.12 and the Activity (L02) was “Non-Toxic”. The Activity (HepG2 [3]) was “Tde”, the Activity (HepG2 [4]) was “Tde” and the Activity (HCCLM3 [5]) was “Active”. For the same compound, the inhibition (HCCLM3 [6]) was “Active”, the Activity (HepG2 [7]) was “Dose-Dependent Effect” and the Activity (HepG2 [8]) was “inactive”. The Activity [9] was “Non-Toxic”, the Activity (HepG2 [10]) was “Active” and the Activity (HepG2 [11]) was 0.32 g. The Activity (HCCLM3 [12]) was “Active”, the Activity [13] was “Non-Toxic” and the Activity [14] was “Non-Toxic”. For the same compound, the Activity [15] was “Non-Toxic”, the pIC50 [16] was 8.14 and the pIC50 [17] was 8.29. For the same compound, the Activity (HepG2 [18]) was “inactive”, the Activity (HCCLM3 [19]) was “inactive” and the Activity (HepG2 [20]) was “inactive”. For the same compound, the Activity (HCCLM3 [21]) was “Active”, the Activity (SK-HEP1 [22]) was “Active” and the Activity (SK-HEP1 [23]) was “Active”. For the same compound, the inhibition (SK-HEP1 [24]) was “inactive”, the inhibition (SK-HEP1 [25]) was “inactive” and the Activity (HCCLM3 [26]) was “Active”. For the same compound, the Activity (HCCLM3 [27]) was “Active”, the Activity (HCCLM3 [28]) was “Active” and the Activity (HCCLM3 [29]) was “Active”. For the same compound, the Activity (HCCLM3 [30]) was “Active”, the Activity (HCCLM3 [31]) was “Tde” and the inhibition (HCCLM3 [32]) was “Active”. For the same compound, the Activity (HCCLM3 [33]) was “Active”, the Activity (HCCLM3 [34]) was “Active” and the Activity [35] was 0.695 g.
